{"source": "patent US9176153B2", "about": "“Prevention therapy and prognosis/monitoring in sepsis and septic shock” (NEDERLANDSE ORGANISATIE VOOR […] ONDERZOEK TNO, priority 2002, dated 2015)", "molecules": {"B1": {"name": "APDLSGTLESIPDKLKEFGNTLEDKARAAIEHIKQKEILTKTRAWFSEAFGKVKEKLKTTFS (protein)", "chain": "APDLSGTLESIPDKLKEFGNTLEDKARAAIEHIKQKEILTKTRAWFSEAFGKVKEKLKTTFS", "modifications": "Muss p.; SITE (1)..(62) primary amino acid sequence of apoCI", "notes": "endogenous mouse apolipoprotein CI in murine plasma"}}, "key": {"LPS Re595": {"test_system": "LPS Re595", "assay": "liver uptake and serum residence of 125I-LPS after intravenous injection in mice", "type": "in vivo, Wild-type (C57B1/6) mice", "settings": "for effect on behavior of 125I-LPS after intravenous injection (liver uptake, residence in blood): 125I-LPS Re595 10 μg/kg, LPS:apoCI 1:0.2 to 1:16, LPS:albumin 1:16", "experimental": "Wild-type (C57B1/6) mice were anesthetized and, via the lower vena cava, injected intravenously with radioactively (^125I) labeled LPS Re595 (10 μg/kg) without, and with, respectively, apoCI (molar ratio LPS:apoCI=1:0.2, 1:0.5, 1:1 and 1:16) and bovine serum albumin (molar ratio LPS:albumin=1:16). Blood samples and bits of liver tissue were taken at t=2, 5, 10, 20 and 30 minutes after injection. After this, the mice were sacrificed. Next, the amounts of LPS in the blood sera and liver samples were quantified on the basis of the amount of radioactive radiation. Also, a serum sample was taken 30 minutes after injection of LPS:apoCI (1:1) and subjected to agarose gel electrophoresis to study the distribution of the ^125I-LPS over the various lipoproteins. Lipoprotein lipids were visualized with the aid of Sudan Black, and ^125I-LPS by means of autoradiography. In FIGS. 6A and 6B the amounts of ^125I-LPS in the liver and the blood serum, respectively, are plotted as a percentage of the injected dose against time (n=3.+−.SEM). […] Already at a molar ratio of 1:1, the uptake of LPS by the liver was reduced 8-fold. The strong binding of apoCI to LPS (see Example 2) therefore proves to be relevant in the blood too."}, "TNFα": {"test_system": "TNFα", "assay": "LPS-induced TNFα response in mice", "type": "in vivo, Wild-type (C57B1/6) mice", "experimental": "Wild-type (C57B1/6) mice were injected, by way of the tail vein, with LPS Re595 (25 μg/kg) without, and with, apoCI (molar ratio LPS:apoCI=1:5). Blood samples were taken at t=0, 30, 60, 90, 120 and 180 minutes after injection. In the samples, subsequently, the amount of TNFα was quantified with the aid of a mouse-TNFα specific ELISA according to the accompanying instructions (Immunosource, Halle, Belgium, cat. no. BMS607MST), and the amounts of TNFα in the blood plasma were subsequently plotted against time."}, "FITC-LPS Re595 [1]": {"test_system": "FITC-LPS Re595", "assay": "monomerization of FITC-LPS by murine plasma with different apoCI levels", "type": "biochemical, mouse", "experimental": "We have determined the effect of the apoCI level in murine plasma on monomerization of FITC-LPS as described in Example 2. For that purpose, FITC-LPS was incubated with plasma that had been isolated from wild-type mice, genetically modified mice which are deficient for apoCI (apocl^−/−), or genetically modified mice which express the human apoCI hemizygote (APOC1^+/0) or homozygote (APOC1^+/+).\nFITC-LPS Re595 (100 ng) was incubated with plasma (0.125%) isolated from the blood of the various mouse types, after which the occurrence of fluorescence was followed in time with the aid of a fluorimeter. The expression of human apoCI in mouse plasma led to an apoCI-dose dependent increase of the FITC-LPS monomerization, which was 32% at a maximum. […] This indicates not only that mouse-apoCI, like human apoCI, is capable of monomerizing LPS, but especially also that the endogenous presence of apoCI contributes for a considerable part to the total LPS-disaggregated capacity of mouse plasma."}, "LPS": {"test_system": "LPS", "assay": "LPS-induced inhibition of apolipoprotein-specific sandwich ELISA", "type": "binding", "experimental": "The apoCI level in blood plasma can be established in any suitable manner. Preferably, the apoCI level is determined with a sandwich Enzyme-Linked ImmunoSorbent Assay (sandwich ELISA). To this end, for instance 96-wells plates (medium-binding plates; Costar) are coated with a (10,000-fold dilution of a) polyclonal antibody to human apoCI generated in goat (goat-anti human apoCI; Academy Bio-Medical Company, Houston, USA; cat. 31A-Glb). Next, human blood plasma or serum is added (100,000-300,000-fold dilution), whereby the apoCI present therein is quantitatively bound by this primary antibody. […] The HRP is subsequently quantified by means of a stain reaction with 3,3′,5,5′-tetramethylbenzidine (TMB) as substrate, and the stain intensity is compared with a calibration curve which is constructed with pure human apoCI (Labconsult, Brussels, Belgium; cat. A50366H).\nA particular amount of human apoCI (0.75 ng/mL) was incubated with LPS in increasing molar ratios, after which the apoCI concentration was determined with the aid of the human apoCI-specific sandwich ELISA as described above under F. The LPS-induced inhibition of the stain reaction from which the apoCI concentration is read, was determined as a percentage of the maximum staining in the absence of LPS (n=2.+−.SEM) (FIG. 3). […]"}, "FITC-LPS Re595 [2]": {"test_system": "FITC-LPS Re595", "assay": "monomerization of FITC-LPS by pure apolipoprotein (fluorescence dequenching)", "type": "biochemical", "settings": "FITC-LPS Re595 100 ng, molar ratios 1:1, 1:5, 1:10 and 1:20", "experimental": "Finally, the effect of apoCI on the monomerization rate of LPS was studied. […] FITC-LPS Re595 (100 ng) was incubated with pure human apoCI (in molar ratios 1:1, 1:5, 1:10 and 1:20), after which the occurrence of fluorescence was followed in time with the aid of a fluorimeter."}, "[3]": {"test_system": "LPS Re595 (Salmonella minnesota)", "assay": "agarose gel electrophoresis of 125I-LPS incubated with human apoCI", "type": "binding", "experimental": "LPS Re595 (Salmonella minnesota) was radioactively labeled with ^125I as described (Rensen, 1997) and incubated (30 min at 37° C.) with increasing amounts of human apoCI which has been isolated from human blood (Tournier, 1984). Next, the incubation volumes were transferred to an agarose gel (position Rf 0), after which, for 2 hours, an electrophoretic field was applied (so-called agarose gel electrophoresis). After electrophoresis, the ^125I-LPS was visualized by means of autoradiography. Through its negative charge, LPS tends to migrate to the positive pole (anode); which, however, is prevented in that the LPS forms large micellary structures that cannot pass the relatively small pores formed by the agarose matrix.\nAlso, the effect of increasing amounts of LPS on the migration of a fixed amount of apoCI was determined. For that purpose, the apoCI was visualized in the gel after electrophoresis by means of immunoblotting with a horseradish peroxidase-conjugated antibody directed against human apoCI (Academy Bio-Medical Company, Houston, USA; cat. 31H-G1b)."}}, "note": "“Also recorded” adds a separate entry of the source."}
{"molecule": "Bovine serum albumin: bovine serum albumin used as control protein [reference compound]", "values": [{"measurement": "effect on behavior of 125I-LPS after intravenous injection (liver uptake, residence in blood)", "setting": "LPS Re595", "result": "not effective"}]}
{"molecule": "TPDVSSALDKLKEFGNTLEDKARELISRIKQSELSAKMREWFSETFQKVKEKLKIDS (human apoCI peptide) [human apolipoprotein CI, 57 amino acids, 6.6 kDa, purified from human blood]", "values": [{"measurement": "increase of the LPS-induced TNF level versus LPS alone", "setting": "TNFα; LPS Re595 25 μg/kg with apoCI, molar ratio 1:5", "result": "fourfold"}, {"measurement": "LPS-induced TNF level in blood plasma", "setting": "TNFα; LPS Re595 25 μg/kg with apoCI, molar ratio LPS:apoCI 1:5, tail vein, versus 2.8 for LPS alone", "result": 10.8, "unit": "ng/mL"}, {"measurement": "TNFα induction by apoCI without LPS", "setting": "TNFα; equal amount of apoCI without LPS", "result": "no TNFα inducing effect"}, {"measurement": "effect on behavior of 125I-LPS after intravenous injection (liver uptake, residence in blood)", "setting": "LPS Re595", "result": "inhibit the decrease of LPS from the blood strongly and dose-dependently; also recorded: strongly reducing the uptake of LPS by the liver"}, {"measurement": "reduction of uptake of LPS by the liver", "setting": "LPS Re595; molar ratio LPS:apoCI 1:1, 125I-LPS Re595 10 μg/kg intravenously", "result": 8, "unit": "fold"}, {"measurement": "increase of the FITC-LPS monomerization by expression of human apoCI in mouse plasma", "setting": "FITC-LPS Re595 [1]; plasma 0.125% of APOC1+/0 or APOC1+/+ mice versus wild-type, maximum", "result": 32, "unit": "%"}, {"measurement": "LPS-induced inhibition of the staining reaction of apoCI-specific sandwich ELISA", "setting": "LPS; 200-fold molar excess of LPS to apoCI, apoCI 0.75 ng/mL, percentage of maximum staining in absence of LPS", "result": "more than 40%"}, {"measurement": "increase in FITC fluorescence (monomerization of LPS)", "setting": "FITC-LPS Re595 [2]", "result": "dose-dependent monomerization of LPS micelles"}, {"measurement": "increase in FITC fluorescence (monomerization of LPS)", "setting": "FITC-LPS Re595 [2]; listed as ApoCI", "result": "increase strongly in a dose-dependent manner"}, {"measurement": "migration of 125I-LPS in agarose gel", "setting": "[3]; 0.5 molecules of apoCI with respect to 1 molecule of LPS, incubated 30 min at 37° C., 2 hours electrophoresis", "result": "complete migration of the LPS to the positive pole"}, {"measurement": "migration of apoCI in agarose gel on binding of LPS", "setting": "[3]; fixed amount of apoCI, increasing amounts of LPS, immunoblotting", "result": "accelerated migration of apoCI to the positive pole"}]}
{"molecule": "apoCIII: apolipoprotein CIII, 79 amino acids, two amphipatic helices, comparable size and structure to apoCI [reference compound]", "values": [{"measurement": "effect of LPS on quantification with apoCIII-specific sandwich ELISA", "setting": "LPS; comparable apoCIII-specific sandwich ELISA", "result": "no effect"}, {"measurement": "increase in FITC fluorescence (monomerization of LPS)", "setting": "FITC-LPS Re595 [2]", "result": "hardly effective"}]}
{"molecule": "B1", "values": [{"measurement": "reduction of monomerization of FITC-LPS owing to absence of mouse-apoCI", "setting": "FITC-LPS Re595 [1]; plasma 0.125% of apoc1-/- mice versus wild-type", "result": 60, "unit": "%"}]}
